What follows are compounds tested against T1, estrogen receptor (Homo sapiens, UniProt P03372) (assay: AP (alkaline phosphatase) assay in ECC-1 cells, agonist mode and antagonist mode). Settings: 3 days, absence of E2 (agonist mode) or 500 pM E2 (antagonist mode), AP activity normalized to 500 pM E2 alone.
T1 construct: endogenous in cells; host or cells: ECC-1 cells
T1 sequence (P03372 1-595): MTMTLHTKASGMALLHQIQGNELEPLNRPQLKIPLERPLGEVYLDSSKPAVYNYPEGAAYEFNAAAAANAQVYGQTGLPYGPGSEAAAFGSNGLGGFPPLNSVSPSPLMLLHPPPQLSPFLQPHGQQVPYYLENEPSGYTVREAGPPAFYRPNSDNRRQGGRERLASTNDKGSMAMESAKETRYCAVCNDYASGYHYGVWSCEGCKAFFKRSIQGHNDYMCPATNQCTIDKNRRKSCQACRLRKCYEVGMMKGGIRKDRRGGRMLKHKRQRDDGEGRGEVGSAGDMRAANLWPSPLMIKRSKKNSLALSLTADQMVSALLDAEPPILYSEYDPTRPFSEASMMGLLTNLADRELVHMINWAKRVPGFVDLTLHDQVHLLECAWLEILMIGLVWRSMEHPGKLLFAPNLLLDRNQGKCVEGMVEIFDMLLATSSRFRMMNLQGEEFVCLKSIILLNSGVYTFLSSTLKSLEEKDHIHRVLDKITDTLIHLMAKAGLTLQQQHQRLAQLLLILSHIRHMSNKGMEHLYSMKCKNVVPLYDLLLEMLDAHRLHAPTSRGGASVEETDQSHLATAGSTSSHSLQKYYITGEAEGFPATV
Type: cell-based
Description: ECC-1 cells were trypsinized and resuspended in hormone-depleted media and plated at a density of 15 k cells per well into a 96-well plate for at least 4 hours. Cells were treated with test compounds in the absence of E2 (for agonist mode) or in the presence of 500 pM E2 (for antagonist mode) for 3 days and plates were subsequently frozen at −80° C. Thawed plates were incubated with a chromogenic substrate of AP, p-nitrophenyl phosphate (Thermo Fisher Scientific), for 40 minutes at 42° C., and absorbances were read at 405 nm. AP activity was normalized to the activity of 500 pM E2 alone.
The compound numbers correspond to the compound numbers of Table 1 and 2. Compounds having an activity designated as “+” provided estrogen receptor agonism having (i) at least 80% increase in the E2-normalized signal in the AP assay (agonist mode) and (ii) no more than 80% reduction in the E2-normalized signal in the AP assay (antagonist mode). Compounds having an activity designated as “++” provided estrogen receptor antagonism having (i) between 10% and 80% increase in the E2-normalized signal in the AP assay (agonist mode) and (ii) between 10% and 80% reduction in the E2-normalized signal in the AP assay (antagonist mode).

| SMILES | Activity (estrogen receptor modulation, agonism and antagonism) |
| --- | --- |
| C[C@@H]1Cc2c([nH]c3ccccc23)[C@@H](c2ncc(OC3CN(CCCF)C3)s2)N1CC(C)(C)F [Example I-9, 2-[(1S,3R)-2-(2-fluoro-2-methyl-propyl)-3-methyl-1,3,4,9-tetrahydropyrido[3,4-b]indol-1-yl]-5-[1-(3-fluoropropyl)azetidin-3-yl]oxy-thiazole] | ++ (estrogen receptor antagonism having (i) between 10% and 80% increase in the E2-normalized signal in the AP assay (agonist mode) and (ii) between 10% and 80% reduction in the E2-normalized signal in the AP assay (antagonist mode)) |
| C[C@@H]1Cc2c([nH]c3ccccc23)[C@@H](c2ccc(O[C@H]3CCN(CCC(F)F)C3)s2)N1CC(C)(C)F [Example I-8, (1S,3R)-1-(5-(((S)-1-(3,3-difluoropropyl)pyrrolidin-3-yl)oxy)thiophen-2-yl)-2-(2-fluoro-2-methylpropyl)-3-methyl-2,3,4,9-tetrahydro-1H-pyrido[3,4-b]indole] | ++ (estrogen receptor antagonism having (i) between 10% and 80% increase in the E2-normalized signal in the AP assay (agonist mode) and (ii) between 10% and 80% reduction in the E2-normalized signal in the AP assay (antagonist mode)) |
| CCCN1CC(Oc2ccc([C@@H]3c4[nH]c5ccccc5c4C[C@@H](C)N3CC(C)(C)F)s2)C1 [Example I-1, 3-({5-[(1S,3R)-2-(2-fluoro-2-methylpropyl)-3-methyl-1H,2H,3H,4H,9H-pyrido[3,4-b]indol-1-yl]thiophen-2-yl}oxy)-1-propylazetidine] | ++ (estrogen receptor antagonism having (i) between 10% and 80% increase in the E2-normalized signal in the AP assay (agonist mode) and (ii) between 10% and 80% reduction in the E2-normalized signal in the AP assay (antagonist mode)) |
| C[C@@H]1C[C@@H](Oc2ncc([C@@H]3c4[nH]c5ccccc5c4C[C@@H](C)N3CC(F)(F)CO)s2)CN1CCCF [Example I-30, 2,2-difluoro-3-[(1S,3R)-1-[2-[(3R,5R)-1-(3-fluoropropyl)-5-methyl-pyrrolidin-3-yl]oxythiazol-5-yl]-3-methyl-1,3,4,9-tetrahydropyrido[3,4-b]indol-2-yl]propan-1-ol] | + (estrogen receptor agonism having (i) at least 80% increase in the E2-normalized signal in the AP assay (agonist mode) and (ii) no more than 80% reduction in the E2-normalized signal in the AP assay (antagonist mode)) |
| C[C@@H]1[C@H](Oc2ncc([C@@H]3c4[nH]c5ccccc5c4C[C@@H](C)N3CC(F)(F)CO)s2)CCN1CCCF [Example I-35, 2,2-difluoro-3-[(1S,3R)-1-[2-[(2R,3R)-1-(3-fluoropropyl)-2-methyl-pyrrolidin-3-yl]oxythiazol-5-yl]-3-methyl-1,3,4,9-tetrahydropyrido[3,4-b]indol-2-yl]propan-1-ol] | + (estrogen receptor agonism having (i) at least 80% increase in the E2-normalized signal in the AP assay (agonist mode) and (ii) no more than 80% reduction in the E2-normalized signal in the AP assay (antagonist mode)) |
| C[C@@H]1Cc2c([nH]c3ccccc23)[C@@H](c2cnc(O[C@H]3CN(CCCF)C[C@H]3F)s2)N1CC(F)(F)CO [Example I-33, 2,2-difluoro-3-[(1S,3R)-1-[2-[(3S,4R)-4-fluoro-1-(3-fluoropropyl)pyrrolidin-3-yl]oxythiazol-5-yl]-3-methyl-1,3,4,9-tetrahydropyrido[3,4-b]indol-2-yl]propan-1-ol] | +++ (estrogen receptor antagonism (i) with pIC50 greater than 7.5 and at least a 10% reduction in the E2-normalized signal in the AP assay (antagonist mode); and no more than 10% increase in E2-normalized signal in the AP assay (agonist mode)) |
| CCCN1CC[C@@H](Oc2ccc([C@@H]3c4[nH]c5ccccc5c4C[C@@H](C)N3CC(C)(C)F)s2)C1 [Example I-10, (1S,3R)-2-(2-fluoro-2-methyl-propyl)-3-methyl-1-[5-[(3R)-1-propylpyrrolidin-3-yl]oxy-2-thienyl]-1,3,4,9-tetrahydropyrido[3,4-b]indole] | + (estrogen receptor agonism having (i) at least 80% increase in the E2-normalized signal in the AP assay (agonist mode) and (ii) no more than 80% reduction in the E2-normalized signal in the AP assay (antagonist mode)) |
| C[C@@H]1Cc2c([nH]c3ccccc23)[C@@H](c2cnc(OC3CN(CCCF)C3)s2)N1CC(F)(F)CO [Example I-31, 2,2-difluoro-3-[(1S,3R)-1-[2-[1-(3-fluoropropyl)azetidin-3-yl]oxythiazol-5-yl]-3-methyl-1,3,4,9-tetrahydropyrido[3,4-b]indol-2-yl]propan-1-ol] | ++ (estrogen receptor antagonism having (i) between 10% and 80% increase in the E2-normalized signal in the AP assay (agonist mode) and (ii) between 10% and 80% reduction in the E2-normalized signal in the AP assay (antagonist mode)) |
| C[C@@H]1Cc2c([nH]c3ccccc23)[C@@H](c2cnc(O[C@@H]3CCCN(CCCF)C3)s2)N1CC(F)(F)CO [Example I-37, 2,2-difluoro-3-[(1S,3R)-1-[2-[[(3R)-1-(3-fluoropropyl)-3-piperidyl]oxy]thiazol-5-yl]-3-methyl-1,3,4,9-tetrahydropyrido[3,4-b]indol-2-yl]propan-1-ol] | +++ (estrogen receptor antagonism (i) with pIC50 greater than 7.5 and at least a 10% reduction in the E2-normalized signal in the AP assay (antagonist mode); and no more than 10% increase in E2-normalized signal in the AP assay (agonist mode)) |
| C[C@@H]1Cc2c([nH]c3ccccc23)[C@@H](c2ccc(O[C@@H]3CCN(CCCF)C3)s2)N1CC(C)(C)F [Example I-5, (3R)-3-({5-[(1S,3R)-2-(2-fluoro-2-methylpropyl)-3-methyl-1H,2H,3H,4H,9H-pyrido[3,4-b]indol-1-yl]thiophen-2-yl}oxy)-1-(3-fluoropropyl)pyrrolidine] | + (estrogen receptor agonism having (i) at least 80% increase in the E2-normalized signal in the AP assay (agonist mode) and (ii) no more than 80% reduction in the E2-normalized signal in the AP assay (antagonist mode)) |
| C[C@@H]1Cc2c([nH]c3ccccc23)[C@@H](c2ncc(OC3CN(CCCF)C3)s2)N1CC(F)(F)CO [Example I-22, 2,2-difluoro-3-[(1S,3R)-1-[5-[1-(3-fluoropropyl)azetidin-3-yl]oxythiazol-2-yl]-3-methyl-1,3,4,9-tetrahydropyrido[3,4-b]indol-2-yl]propan-1-ol] | ++ (estrogen receptor antagonism having (i) between 10% and 80% increase in the E2-normalized signal in the AP assay (agonist mode) and (ii) between 10% and 80% reduction in the E2-normalized signal in the AP assay (antagonist mode)) |
| C[C@@H]1Cc2c([nH]c3ccccc23)[C@@H](c2ccc(O[C@@H]3CCN(CCCF)C3)s2)N1CC(F)(F)CO [Example I-13, 2,2-difluoro-3-[(1S,3R)-1-[5-[(3R)-1-(3-fluoropropyl)pyrrolidin-3-yl]oxy-2-thienyl]-3-methyl-1,3,4,9-tetrahydropyrido[3,4-b]indol-2-yl]propan-1-ol] | +++ (estrogen receptor antagonism (i) with pIC50 greater than 7.5 and at least a 10% reduction in the E2-normalized signal in the AP assay (antagonist mode); and no more than 10% increase in E2-normalized signal in the AP assay (agonist mode)) |
| C[C@@H]1Cc2c([nH]c3ccccc23)[C@@H](c2cnc(O[C@@H]3CCN(CCCF)[C@H]3C)s2)N1CC(F)(F)CO [Example I-34, 2,2-difluoro-3-[(1S,3R)-1-[2-[(2S,3R)-1-(3-fluoropropyl)-2-methyl-pyrrolidin-3-yl]oxythiazol-5-yl]-3-methyl-1,3,4,9-tetrahydropyrido[3,4-b]indol-2-yl]propan-1-ol] | + (estrogen receptor agonism having (i) at least 80% increase in the E2-normalized signal in the AP assay (agonist mode) and (ii) no more than 80% reduction in the E2-normalized signal in the AP assay (antagonist mode)) |
| C[C@@H]1Cc2c([nH]c3ccccc23)[C@@H](c2ccc(OC3CN(CCCF)C3)s2)N1CC(F)(F)F [Example I-21, (1S,3R)-1-[5-[1-(3-fluoropropyl)azetidin-3-yl]oxy-2-thienyl]-3-methyl-2-(2,2,2-trifluoroethyl)-1,3,4,9-tetrahydropyrido[3,4-b]indole] | ++ (estrogen receptor antagonism having (i) between 10% and 80% increase in the E2-normalized signal in the AP assay (agonist mode) and (ii) between 10% and 80% reduction in the E2-normalized signal in the AP assay (antagonist mode)) |
